Source: patent publication US8809377B2, “Deubiquitinase inhibitors and methods for use of the same” (The Regents of the University of Michigan, priority 2010, dated 2014)

Columns and labels:
[1] = target: UCH-L1 (Homo sapiens, UniProt P09936); experiment: Ub-AMC assay on purified DUB; assay type: biochemical; details: 5 μM
Description: (§1) Purified DUBs at optimal concentrations (USPS; 20 nM, UCH-L1; 20 nM, UCH-L3; 5 nM, USP9x; immunoprecipitated from 500 μg Z138 cell lysate) were incubated in DUB buffer containing WP1130, vehicle alone (DMSO) or 1 mM NEM (positive control for DUB inhibition) in a 100 μL reaction volume for 30 min. The reaction was initiated by the addition of 500 nM Ub-AMC and the release of AMC-fluorescence was recorded at ex/em 380/480 using a spectrofluorometer.
(§2) USP9x was immunoprecipitated from Z138 cell lysates, prepared in DUB buffer and the beads were incubated with vehicle alone or WP1130 for 30 min. Ub-AMC (500 nM) was added to each reaction and fluorescence was monitored every minute for up to 30 minutes. The maximum fluorescence observed at the end of the linear phase of substrate cleavage in control and WP1130 treated DUBs was used as a gauge to estimate DUB activity and % inhibition. Treatment with 5 μM WP1130 reduced the activities of USP9x, USP5 and UCH-L1 by 80% or more.

[2] = target: UCH-L3 (Homo sapiens, UniProt P15374); experiment: Ub-AMC assay on purified DUB; assay type: biochemical
Chain of UCH-L3 (P15374 whole entry, species assumed): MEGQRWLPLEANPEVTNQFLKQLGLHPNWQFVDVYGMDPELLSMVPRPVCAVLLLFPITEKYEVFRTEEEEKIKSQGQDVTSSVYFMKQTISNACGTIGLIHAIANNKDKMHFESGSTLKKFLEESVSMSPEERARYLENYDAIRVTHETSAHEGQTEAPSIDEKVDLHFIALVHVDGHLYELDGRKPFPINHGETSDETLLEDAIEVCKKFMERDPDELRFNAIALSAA
Description: as §1, §2

[3] = target: T1, USP5 (Homo sapiens, UniProt P45974); experiment: Ub-AMC assay on purified DUB; assay type: biochemical; details: 5 μM
T1 construct: endogenous in cells; host or cells: Z138
T1 sequence (P45974 1-858): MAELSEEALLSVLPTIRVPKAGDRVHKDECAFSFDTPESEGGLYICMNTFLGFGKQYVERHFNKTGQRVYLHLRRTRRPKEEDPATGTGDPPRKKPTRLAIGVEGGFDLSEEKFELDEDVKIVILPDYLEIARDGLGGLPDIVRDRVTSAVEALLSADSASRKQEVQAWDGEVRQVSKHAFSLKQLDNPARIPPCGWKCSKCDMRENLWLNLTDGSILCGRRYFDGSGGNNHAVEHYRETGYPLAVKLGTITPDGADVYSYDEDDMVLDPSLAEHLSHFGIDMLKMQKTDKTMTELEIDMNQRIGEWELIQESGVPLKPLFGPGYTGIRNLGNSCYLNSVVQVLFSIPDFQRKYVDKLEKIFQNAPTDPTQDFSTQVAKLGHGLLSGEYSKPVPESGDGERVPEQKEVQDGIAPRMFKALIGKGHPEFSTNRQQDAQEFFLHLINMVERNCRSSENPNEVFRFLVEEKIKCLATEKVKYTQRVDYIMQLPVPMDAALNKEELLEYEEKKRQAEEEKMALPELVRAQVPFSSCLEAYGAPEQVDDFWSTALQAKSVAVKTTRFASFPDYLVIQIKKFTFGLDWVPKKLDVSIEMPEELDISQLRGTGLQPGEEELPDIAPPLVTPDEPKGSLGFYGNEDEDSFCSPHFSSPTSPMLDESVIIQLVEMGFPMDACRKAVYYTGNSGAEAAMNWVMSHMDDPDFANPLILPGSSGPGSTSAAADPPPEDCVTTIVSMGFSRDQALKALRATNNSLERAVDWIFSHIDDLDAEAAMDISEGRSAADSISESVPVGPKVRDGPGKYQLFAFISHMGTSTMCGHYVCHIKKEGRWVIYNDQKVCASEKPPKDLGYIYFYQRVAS
Description: as §1, §2

[4] = system: Toxoplasma gondii; experiment: Toxoplasma gondii replication in human foreskin fibroblasts; assay type: cell-based
Description: Primary human foreskin fibroblasts (HFF) were infected with trachyzoites in the presence of WP1130 or vehicle control for 24 hours. […] 1.25×10^5 tachyziotes (RH strain) (MOI=1) were added to each well of a chamber slide in the presence of WP1130 or vehicle control. At 24 hours post infection, cells were fixed in 4% paraformaldehyde for fifteen minutes. Cells were then washed with PBS and analyzed by immunofluorescence microscopy. Parasites were stained with an anti-SAG 1 antibody (the immunodominant surface antigen of T. gondii) followed by an Alexa 594-labeled secondary antibody and DAPI. For quantitative analysis the number of parasites/vacuole were counted.
WP1130 also blocks the replication of the apicomplexan Toxoplasma gondii in primary human foreskin fibroblasts. Cells were treated with WP1130 and infected with tachyziotes (RH strain) (MOI 1) for 24 hr before performing immunofluorescence and counting parasite-containing vacuoles.

[5] = system: Murine norovirus (MNV); experiment: Murine norovirus plaque assay; assay type: cell-based; details: Norwalk virus
Description: Viral titers were determined by plaque assay.
Cells were treated with IFN-β as a positive anti-viral control.

[6] = system: La Crosse virus (LaCV); experiment: La Crosse virus plaque assay; details: human neurons (Be2-c), 5 μM, 30 min pre-treatment
[7] = primary human foreskin fibroblasts, RH strain MOI 1, 24 hr

Chain of UCH-L1 (P09936 whole entry, species assumed): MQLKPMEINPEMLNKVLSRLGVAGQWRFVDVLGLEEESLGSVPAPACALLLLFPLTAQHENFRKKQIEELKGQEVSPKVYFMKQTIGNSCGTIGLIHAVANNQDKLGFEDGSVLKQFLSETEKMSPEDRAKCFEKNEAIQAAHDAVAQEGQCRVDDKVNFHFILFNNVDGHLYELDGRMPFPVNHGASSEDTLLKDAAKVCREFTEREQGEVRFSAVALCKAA

CCC[C@H](NC(=O)/C(C#N)=C/c1cccc(Br)n1)c1ccccc1 [WP1130]
reduction of UCH-L1 activity [1]: ≥ 80%
inhibition of UCH-L3 activity [2]: No inhibition
reduction of USP5 activity [3]: ≥ 80%
number of parasites per vacuole ([4]; HFF, 5 μM, 24 hours post infection): significantly reduced
decrease in the vacuoles containing 4 parasites [4, 7]: ~5 fold
increase in the number of vacuoles containing only 1 parasite [4, 7]: ~3 fold
log reduction at 5 µM ([5]; RAW264.7, MNV, murine macrophages (RAW264.7 or bone marrow derived), 5 μM, 30 min pre-treatment, 8-12 hr, read-out: Log inhibition by plaque assay): ~2
EC50 ([5]; RAW264.7, MNV-1, RAW 264.7, 12 hours postinfection, read-out: anti-viral EC50 activity): 1900 nM
Log inhibition by plaque assay [6]: 2-2.5 log
Log inhibition by plaque assay ([6]; listed as HWP1130): 2.5 log
